Measured values published in patent US20230190873A1, “METHODS AND COMPOSITIONS RELATED TO THE TREATMENT OF NURR1- AND PPARy-MEDIATED CONDITIONS” (The McLean Hospital Corporation, priority 2017, published 2023).
Several values for one entry are separate records, joined by “and”; a condition that tells them apart may be missing. Identical values can stand only once. Entries after “also recorded” stand apart in the source; their conditions may differ.

Experiments:
PPARγ-LBD = molecular target: T1, PPARγ-LBD (Homo sapiens, UniProt P37231); assay: PPARγ-LBD reporter construct transcriptional activation; format: cell-based
T1 construct: fold induction of reporter constructs of Nurr1-LBD, PPARa-LBD, and PPARγ-LBD; expressed in transfected cells
T1 sequence (P37231 238-503 limits assumed): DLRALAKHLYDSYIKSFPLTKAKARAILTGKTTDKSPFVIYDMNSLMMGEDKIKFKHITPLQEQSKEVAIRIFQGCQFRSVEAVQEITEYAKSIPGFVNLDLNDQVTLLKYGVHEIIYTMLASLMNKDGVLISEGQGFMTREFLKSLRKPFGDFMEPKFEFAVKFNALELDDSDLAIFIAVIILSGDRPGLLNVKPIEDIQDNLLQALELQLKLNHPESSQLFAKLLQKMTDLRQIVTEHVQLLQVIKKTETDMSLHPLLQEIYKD
From the text: FIG. 13 depicts the fold induction of reporter constructs of Nurr1-LBD, PPARa-LBD, and PPARγ-LBD by different concentrations of PGH1, PGH2, PGJ2, and 15-d-PGJ2. […]

PPARa-LBD = molecular target: T2, PPARa-LBD (Homo sapiens, UniProt Q07869); assay: PPARa-LBD reporter construct transcriptional activation; format: cell-based
T2 construct: fold induction of reporter constructs of Nurr1-LBD, PPARa-LBD, and PPARγ-LBD; expressed in transfected cells
T2 sequence (Q07869 239-466 limits assumed): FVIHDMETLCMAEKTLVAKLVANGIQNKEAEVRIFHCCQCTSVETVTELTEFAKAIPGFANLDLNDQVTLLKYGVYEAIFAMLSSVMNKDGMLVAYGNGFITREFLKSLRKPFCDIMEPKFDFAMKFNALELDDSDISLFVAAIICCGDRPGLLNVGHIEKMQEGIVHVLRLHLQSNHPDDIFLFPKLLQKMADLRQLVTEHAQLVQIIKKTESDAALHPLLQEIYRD
From the text: FIG. 13 depicts the fold induction of reporter constructs of Nurr1-LBD, PPARa-LBD, and PPARγ-LBD by different concentrations of PGH1, PGH2, PGJ2, and 15-d-PGJ2.

Nurr1-LBD = assay: Nurr1 LBD-dependent luciferase reporter assay in SK-N-BE(2)C cells; format: cell-based; details: GAL4(DBD)-Nurr1(LBD) luciferase reporter
Method: The graph depicts Nurr1-inducing activities by tissue extracts from brain, lung, heart, and kidney. […] The effector plasmid pSVGAL4(DBD)Nurr1(LBD) and the reporter gene for p8XUASL-Luc, together with b-galactosidase expression vector, were transiently transfected into neuroblastoma SK-N-BE(2)C cells. 6 h after transfection, cells were treated with the various tissue extracts for 20 h and the reporter activities were determined by luciferase assay and normalized to the b-galactosidase activity. The basal level of transcriptional activity was normalized to 1. The bars represent means +S.E.M. from three independent experiments.
Graph depicts effects of single or combination treatment with AQ/CQ and prostaglandin (PGE) on Nurr1 activity. As a negative control, human neuroblastoma SK-N-BE(2)C cells transfected with p8XUAS-Luc and pGAL(DBD)Nurr1(LBD) constructs were treated with DMSO alone. As a positive control, cells were treated as described above and harvested 24 h after treatment. An expression vector encoding RSV b-gal was co-transfected to allow normalization for transfection efficiency. Luciferase activity is represented as fold induction after normalization to β-galactosidase compared to cells treated with DMSO alone. Data represent the means ±SEMs of triplicate samples.

[1] = test system: LPS-induced immunoactivated mouse bone marrow-derived macrophages; assay: Pro-inflammatory gene expression in immune-activated mBMMs; format: cell-based; details: LPS- or poly(I:C)-induced immune-activated mBMMs, 18 hrs
Method: FIG. 25 show titrations of prostaglandin A1 (PGA1), A2 (PGA2), E1 (PGE1), E2 (PGE2) in LPS-induced immunoactivated mouse bone marrow-derived macrophages. […] The maximal effective concentration was 20 μM or 10 μg/ml.

[2] = test system: MPTP-induced animal model of PD; assay: MPTP-induced animal model of PD; format: in vivo, mice; details: for TH density in the striatum / number of TH+ neurons in the SN: MPTP-treated mice, compared to saline-treated control mice; for latency to fall on a rotating rod (rotarod) / time to descent on the pole (pole test): day 6 following MPTP, compared to saline-treated mice
From the text: FIG. 22A depicts a schematic representation of the administration of PGE1 or PGA1 to MPTP-induced animal model of PD. MPTP-treated mice were pre-administrated with PGE1, PGA1 or saline for 3 days before MPTP injection and post-treated for 5 days after MPTP injection.

[3] = test system: primary cultured mDA neurons; assay: MPP+ toxicity in primary cultured mDA neurons; format: cell-based; details: MPP+ exposure
From the text: MPP+exposure to mDA neurons decreases the number of TH positive dopaminergic neurons.

[4] = test system: H9, human embryonic stem cell (hESC); assay: Dopaminergic differentiation of H9 hESC (real time PCR); format: cell-based; details: for expression level of Lmx1A / expression level of TH: 15 days of differentiation, compared to vehicle group
Method: After 15 days of differentiation procedure including floor plate induction (day1˜day6), neural precursor induction (day 6˜day 12), and dopaminergic precursor induction (day 12˜day 15), cells were harvested for RNA extraction and cDNA preparation. The real time PCR was performed using cDNA and the matching primers for FoxA2, Lmx1A, and TH to determine the level of dopaminergic differentiation.

CCCCC/C=C/C=C1/C(=O)C=C[C@@H]1C/C=C\CCCC(=O)O [15-d-PGJ2]
transcriptional activity of PPARγ-LBD (PPARγ-LBD): robustly activated PPARs; also recorded: increases transcriptional activity of PPARγ-LBD | transcriptional activity of PPARalpha LBD (PPARa-LBD): robustly activated PPARs | transcriptional activity of Nurr1-LBD (Nurr1-LBD): not Nurr1 LBD

CCCCC[C@H](O)/C=C/[C@H]1[C@H](O)CC(=O)[C@@H]1C/C=C\CCCC(=O)O [PGE2]
transcriptional activity of PPARγ-LBD (PPARγ-LBD): failed to induce transcriptional activity of PPARγ-LBD | maximal effective concentration [1]: 20 μM and 10 μg/ml | suppression of pro-inflammatory genes TNFα, IL-1β, iNOS and IL-6 [1]: induced suppression of pro-inflammatory genes including TNFα, IL-1β, iNOS and IL-6 in a dose-dependent manner | transcriptional activity of Nurr1-LBD (Nurr1-LBD): specifically and prominently activate the transcription function of Nurr1; also recorded: endogenous activators/agonists of Nurr1 function; also recorded: activate the transcriptional activity of Nurr1 in a dose-dependent manner; also recorded: increase transcriptional activity of Nurr1-LBD in a dose dependent manner

CCCCC[C@H](O)/C=C/[C@H]1OC(O)C[C@H](O)[C@@H]1C/C=C\CCCC(=O)O (some centres unmarked) [TxB2, reference compound]
transcriptional activity of PPARγ-LBD (PPARγ-LBD): does not activate transcriptional function of Nurr1 and PPARγ; also recorded: failed to induce transcriptional activity of PPARγ-LBD | transcriptional activity of Nurr1-LBD (Nurr1-LBD): does not activate transcriptional function of Nurr1 and PPARγ; also recorded: failed to induce transcriptional activity of Nurr1-LBD

CCCCC[C@H](O)/C=C/[C@H]1[C@H](O)CC(=O)[C@@H]1CCCCCCC(=O)O [PGE1]
transcriptional activity of PPARγ-LBD (PPARγ-LBD): failed to induce transcriptional activity of PPARγ-LBD | TH density in the striatum [2]: retain | number of TH+ neurons in the SN [2]: retain a significant number | latency to fall on a rotating rod (rotarod) [2]: rescues impaired motor behaviors | time to descent on the pole (pole test) [2]: rescues impaired motor behaviors | maximal effective concentration [1]: 20 μM and 10 μg/ml | suppression of pro-inflammatory genes TNFα, IL-1β, iNOS and IL-6 [1]: induced suppression of pro-inflammatory genes including TNFα, IL-1β, iNOS and IL-6 in a dose-dependent manner | MPP+-induced loss of TH-positive mDA neurons [3]: significantly rescued the MPP+-induced loss of TH-positive mDA neurons | transcriptional activity of Nurr1-LBD (Nurr1-LBD): specifically and prominently activate the transcription function of Nurr1; also recorded: endogenous activators/agonists of Nurr1 function; also recorded: activate the transcriptional activity of Nurr1 in a dose-dependent manner; also recorded: increase transcriptional activity of Nurr1-LBD in a dose dependent manner | TH expression compared with cAMP ([4]; 0.01 mM concentration): dramatic increase of TH expression in 0.01 mM concentration, which was even stronger than cAMP | expression level of Lmx1A [4]: significantly higher expression level of Lmx1A and TH | expression level of TH [4]: significantly higher expression level of Lmx1A and TH

CCCCC[C@H](O)/C=C/[C@H]1C=CC(=O)[C@@H]1C/C=C\CCCC(=O)O [PGA2]
maximal effective concentration [1]: 20 μM and 10 μg/ml | suppression of pro-inflammatory genes TNFα, IL-1β, iNOS and IL-6 [1]: induced suppression of pro-inflammatory genes including TNFα, IL-1β, iNOS and IL-6 in a dose-dependent manner | transcriptional activity of Nurr1-LBD (Nurr1-LBD): increases transcriptional activity of Nurr1-LBD in a dose dependent manner

CCCCC[C@H](O)/C=C/C1=C(CCCCCCC(=O)O)C(=O)CC1 [PGB1]
transcriptional activity of PPARγ-LBD (PPARγ-LBD): activate transcriptional function of PPARγ in a dose-dependent manner | transcriptional activity of Nurr1-LBD (Nurr1-LBD): increases transcriptional activity of Nurr1-LBD in a dose dependent manner | expression level of Lmx1A [4]: significantly higher expression level of Lmx1A and TH | expression level of TH [4]: significantly higher expression level of Lmx1A and TH

CCCCC[C@H](O)/C=C/[C@H]1C=CC(=O)[C@@H]1CCCCCCC(=O)O [PGA1, prostaglandin A1]
TH density in the striatum [2]: retain | number of TH+ neurons in the SN [2]: retain a significant number | latency to fall on a rotating rod (rotarod) [2]: rescues impaired motor behaviors | time to descent on the pole (pole test) [2]: rescues impaired motor behaviors | maximal effective concentration [1]: 20 μM and 10 μg/ml | suppression of pro-inflammatory genes TNFα, IL-1β, iNOS and IL-6 [1]: induced suppression of pro-inflammatory genes including TNFα, IL-1β, iNOS and IL-6 in a dose-dependent manner | MPP+-induced loss of TH-positive mDA neurons [3]: significantly rescued the MPP+-induced loss of TH-positive mDA neurons | transcriptional activity of Nurr1-LBD (Nurr1-LBD): increases transcriptional activity of Nurr1-LBD in a dose dependent manner | expression level of Lmx1A [4]: significantly higher expression level of Lmx1A and TH | expression level of TH [4]: significantly higher expression level of Lmx1A and TH

CC/C=C\CC(O)/C=C/C1=C(C/C=C\CCCC(=O)O)C(=O)CC1 (centres unmarked) [PGB3]
transcriptional activity of Nurr1-LBD (Nurr1-LBD): increases transcriptional activity of Nurr1-LBD in a dose dependent manner

CCCCC[C@H](O)/C=C/[C@@H]1[C@@H](CCCCCCC(=O)O)[C@@H](O)C[C@H]1O [PGF2a]
transcriptional activity of PPARγ-LBD (PPARγ-LBD): failed to induce transcriptional activity of PPARγ-LBD | transcriptional activity of Nurr1-LBD (Nurr1-LBD): activates transcriptional function of Nurr1; also recorded: increases transcriptional activity of Nurr1-LBD in a dose dependent manner

CC/C=C\C[C@H](O)/C=C/[C@H]1C=CC(=O)[C@@H]1C/C=C\CCCC(=O)O [PGA3]
transcriptional activity of Nurr1-LBD (Nurr1-LBD): increases transcriptional activity of Nurr1-LBD in a dose dependent manner

CCCCC[C@H](O)/C=C/C1=C(C/C=C\CCCC(=O)O)C(=O)CC1 [PGB2]
transcriptional activity of PPARγ-LBD (PPARγ-LBD): activate transcriptional function of PPARγ in a dose-dependent manner | transcriptional activity of Nurr1-LBD (Nurr1-LBD): increases transcriptional activity of Nurr1-LBD in a dose dependent manner

CCCCC[C@H](O)/C=C/C1C2CC(OO2)C1C/C=C\CCCC(=O)O (some centres unmarked) [PGH2]
transcriptional activity of PPARγ-LBD (PPARγ-LBD): failed to induce transcriptional activity of PPARγ-LBD | transcriptional activity of Nurr1-LBD (Nurr1-LBD): robustly activate the transcriptional activities of Nurr1 LBD; also recorded: increase transcriptional activity of Nurr1-LBD in a dose dependent manner

CC/C=C\C[C@H](O)/C=C/[C@H]1[C@H](O)CC(=O)[C@@H]1C/C=C\CCCC(=O)O [PGE3]
transcriptional activity of Nurr1-LBD (Nurr1-LBD): specifically and prominently activate the transcription function of Nurr1; also recorded: endogenous activators/agonists of Nurr1 function

CCCCC[C@H](O)/C=C/[C@H]1C(=O)C=C[C@@H]1C/C=C\CCCC(=O)O [PGJ2]
transcriptional activity of PPARγ-LBD (PPARγ-LBD): robustly activated PPARs | transcriptional activity of PPARalpha LBD (PPARa-LBD): robustly activated PPARs | transcriptional activity of Nurr1-LBD (Nurr1-LBD): not Nurr1 LBD
